According to US11407750B2, “Derivatives of an FGFR inhibitor” (Incyte Corporation, priority 2019, dated 2022):

Experiments:
[1] = Permeability in Caco-2 cells (absorptive direction A-B); format: in vitro ADME; conditions: human, Caco-2, 4% BSA in receiver, read-out: CACO2 Pm
Method: (§1) Caco-2 cells were grown in 96-well transwell plates with a seeding density of 14000 cell/well in DMEM medium. To determine the permeability in the absorptive direction (A-B), the test compound in HBSS was added to the donor compartment (apical side), and 4% BSA in HBSS was added into the receiver compartment (basolateral side). To determine whether a compound is a P-gp substrate, permeability values were measured in both the A-B and B-A directions (bidirectional transport assay) in the absence of 4% BSA. Digoxin and cyclosporine A were included as positive controls for P-gp substrate and inhibitor, respectively, to ensure the functionality of P-gp in the bidirectional transport assay. The test compound at various concentrations was added in the donor compartment (apical side for A-B transport and basolateral side for B-A transport) while HBSS solution was added in the receiver compartment (basolateral side for A-B transport and apical side for B-A transport). For permeability studies in the A-B direction, the donor volume was 0.075 mL, and the receiver volume was 0.25 mL. For permeability studies in the B-A direction, the donor volume was 0.25 mL, and the receiver volume was 0.075 mL. The incubation was carried out at 37° C. for 120 minutes. Transepithelial electrical resistance (TEER) was measured before and after the 120 minutes incubation to ensure the integrity of the cell monolayers. At the end of the incubation period, samples were removed from both the donor and receiver sides and mixed with acetonitrile for protein precipitation. The supernatants were collected after centrifugation for analysis using LC-MS/MS method.
(§2) Permeability coefficient (Papp) values from Caco-2 studies were determined using the following equation: Papp(cm/s)=(F*VD)/(SA*MD) where the flux rate (F, mass/time) was calculated from the slope of cumulative amounts of compound of interest on the receiver side, SA is the surface area of the cell membrane, VD is the donor volume, and MD is the initial amount of the solution in the donor chamber.

[2] = Compound 1 human absorption, metabolism, and excretion study (single oral dose of [14C] Compound 1); format: in vivo; conditions: for % of Administered Dose in Feces Samples, Sum: sum 0-144 h; for % Total Radioactivity Pool of Hamilton Pools (0-24 h): blood/plasma samples
Method: An open label-study was conducted, assessing the mass balance, pharmacokinetics, and metabolite profiles of a single oral dose of [14C] Compound 1:
Blood/plasma, urine, and feces were collected from participants for 4 to 10 days after administration.
Human discharge criteria includes that a minimum of 90% of the administered radioactive dose is recovered; and that less than or equal to 1% of the administered radioactive dose is recovered in excreta (urine and feces combined) in 2 consecutive 24-hour urine and fecal collection samples.

FGFR1 = FGFR1 (Homo sapiens (Human), UniProt P11362); assay: FGFR Enzymatic Assay (FRET peptide phosphorylation), FGFR1; format: biochemical
Sequence of FGFR1 (P11362 22-822): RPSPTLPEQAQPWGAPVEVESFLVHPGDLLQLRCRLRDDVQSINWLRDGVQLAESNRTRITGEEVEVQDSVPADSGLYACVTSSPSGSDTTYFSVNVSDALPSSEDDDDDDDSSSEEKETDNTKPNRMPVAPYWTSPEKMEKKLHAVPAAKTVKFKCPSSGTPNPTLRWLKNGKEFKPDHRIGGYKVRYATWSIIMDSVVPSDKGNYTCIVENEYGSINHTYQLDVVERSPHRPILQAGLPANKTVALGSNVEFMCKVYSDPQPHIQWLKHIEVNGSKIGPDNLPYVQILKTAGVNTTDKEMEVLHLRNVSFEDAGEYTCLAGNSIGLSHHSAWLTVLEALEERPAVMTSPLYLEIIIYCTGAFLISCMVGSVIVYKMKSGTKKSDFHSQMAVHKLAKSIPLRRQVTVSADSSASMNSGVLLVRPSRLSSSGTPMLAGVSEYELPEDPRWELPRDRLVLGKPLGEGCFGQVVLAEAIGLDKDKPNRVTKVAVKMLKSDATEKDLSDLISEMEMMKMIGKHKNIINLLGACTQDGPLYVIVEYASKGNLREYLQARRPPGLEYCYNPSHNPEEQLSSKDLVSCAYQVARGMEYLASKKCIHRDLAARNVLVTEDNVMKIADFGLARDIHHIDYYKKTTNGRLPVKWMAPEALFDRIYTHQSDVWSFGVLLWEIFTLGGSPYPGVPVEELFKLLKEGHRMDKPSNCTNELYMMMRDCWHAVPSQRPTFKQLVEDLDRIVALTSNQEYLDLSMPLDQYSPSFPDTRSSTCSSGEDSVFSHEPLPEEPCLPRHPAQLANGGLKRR
Method: (§3) The inhibitor potency of the exemplified compounds was determined in an enzyme discontinuous assay that measures peptide phosphorylation using FRET measurements to detect product formation. Inhibitors were serially diluted in DMSO and a volume of 0.2 μL was transferred to the wells of a 384-well plate. For the isoforms of FGFR (−1, −2, −3 wild-type and mutant isoforms, −4) including phosphorylated and un-phosphorylated proteins, a 5 μL/well volume of enzyme diluted in assay buffer (50 mM HEPES, 10 mM MgCl2, 1 mM EGTA, 0.01% Tween-20, 5 mM DTT, pH 7.5) was added to the plate and pre-incubated with inhibitor for 5 to 15 minutes at ambient temperature. Appropriate controls (enzyme blank and enzyme with no inhibitor) were included on the plate. The reaction was initiated by the addition of a 5 μL/well volume containing both biotinylated […] […] The ATP Km values were pre-determined for each FGFR isoform in a separate series of experiments. […] The plate was allowed to equilibrate for ˜10 minutes at ambient temperature before scanning on a PheraStar plate reader (BMG Labtech) instrument.
(§4) Either GraphPad prism or XLfit was used to analyze the data. The IC50 values were derived by fitting the data to a four parameter logistic equation producing a sigmoidal dose-response curve with a variable Hill coefficient. Prism equation: Y=Bottom+(Top−Bottom)/(1+10^((Log IC50−X)*Hill slope)); […]

FGFR2 = FGFR2 (Homo sapiens (Human), UniProt P21802); assay: FGFR Enzymatic Assay (FRET peptide phosphorylation), FGFR2; format: biochemical
Sequence of FGFR2 (P21802 22-821): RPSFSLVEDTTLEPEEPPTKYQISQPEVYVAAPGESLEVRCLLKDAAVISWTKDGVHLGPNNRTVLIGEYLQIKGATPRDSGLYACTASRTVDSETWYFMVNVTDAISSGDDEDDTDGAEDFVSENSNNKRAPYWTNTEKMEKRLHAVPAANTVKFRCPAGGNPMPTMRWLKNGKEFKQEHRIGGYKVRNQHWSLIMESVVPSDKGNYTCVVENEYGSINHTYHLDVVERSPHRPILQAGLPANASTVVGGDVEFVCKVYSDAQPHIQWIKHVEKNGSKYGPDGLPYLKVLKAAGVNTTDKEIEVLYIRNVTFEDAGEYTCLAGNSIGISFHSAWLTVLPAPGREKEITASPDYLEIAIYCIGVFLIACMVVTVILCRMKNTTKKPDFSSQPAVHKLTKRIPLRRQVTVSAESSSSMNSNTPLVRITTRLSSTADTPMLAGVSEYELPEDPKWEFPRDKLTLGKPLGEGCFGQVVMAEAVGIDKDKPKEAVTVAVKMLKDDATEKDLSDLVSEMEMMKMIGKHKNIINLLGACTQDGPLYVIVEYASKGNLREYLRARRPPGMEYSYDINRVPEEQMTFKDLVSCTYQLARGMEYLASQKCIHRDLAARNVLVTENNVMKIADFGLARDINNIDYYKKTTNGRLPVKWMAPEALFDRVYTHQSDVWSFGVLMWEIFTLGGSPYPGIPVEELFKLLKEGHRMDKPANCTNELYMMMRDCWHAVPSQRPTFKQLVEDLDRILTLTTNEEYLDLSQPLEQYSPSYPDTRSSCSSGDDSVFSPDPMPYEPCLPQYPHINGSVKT
Method: as §3, §4

FGFR3 = FGFR3 (Homo sapiens (Human), UniProt P22607); assay: FGFR Enzymatic Assay (FRET peptide phosphorylation), FGFR3; format: biochemical
Sequence of FGFR3 (P22607 23-806): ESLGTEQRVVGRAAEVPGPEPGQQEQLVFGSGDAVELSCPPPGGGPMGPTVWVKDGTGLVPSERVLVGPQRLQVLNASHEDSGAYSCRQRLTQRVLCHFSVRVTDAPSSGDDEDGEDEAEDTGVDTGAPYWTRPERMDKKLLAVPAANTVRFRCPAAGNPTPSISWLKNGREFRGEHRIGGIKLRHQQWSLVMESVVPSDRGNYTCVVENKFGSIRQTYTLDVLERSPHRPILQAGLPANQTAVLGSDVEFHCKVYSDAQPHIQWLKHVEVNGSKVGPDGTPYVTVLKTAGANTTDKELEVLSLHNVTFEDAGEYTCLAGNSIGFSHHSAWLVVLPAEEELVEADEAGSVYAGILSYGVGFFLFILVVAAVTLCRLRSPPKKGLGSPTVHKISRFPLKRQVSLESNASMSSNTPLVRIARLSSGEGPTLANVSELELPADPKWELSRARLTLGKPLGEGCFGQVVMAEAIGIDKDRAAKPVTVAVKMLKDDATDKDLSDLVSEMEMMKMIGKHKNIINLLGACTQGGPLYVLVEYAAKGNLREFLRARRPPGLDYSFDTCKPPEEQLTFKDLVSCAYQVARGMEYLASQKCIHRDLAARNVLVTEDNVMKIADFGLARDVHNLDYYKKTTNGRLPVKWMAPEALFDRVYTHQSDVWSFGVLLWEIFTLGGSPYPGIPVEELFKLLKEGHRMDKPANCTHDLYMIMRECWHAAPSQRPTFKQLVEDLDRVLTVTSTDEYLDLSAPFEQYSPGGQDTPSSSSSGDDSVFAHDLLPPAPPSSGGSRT
Method: as §3, §4

[3] = biological target: tyrosine-phosphorylated Fibroblast Growth Factor Receptor 2 alpha (FGFR2α) in KATO III cells (Homo sapiens, UniProt P21802); assay: KATOIII Whole Blood pFGFR2α ELISA Assay; format: cell-based; conditions: read-out: FGFR2_WB_ELISA-KATOIII IC50; KATO III cells spiked into human whole blood, 4 hours
Sequence of tyrosine-phosphorylated Fibroblast Growth Factor Receptor 2 alpha (FGFR2α) in KATO III cells (P21802 22-821 limits assumed): as the sequence (P21802 22-821) above
Method: To measure tyrosine-phosphorylated Fibroblast Growth Factor Receptor 2 alpha (FGFR2a) in KATO III spiked whole blood assay, KATO III cells were purchased from ATCC and maintained in Iscove's medium with 20% FBS (Gibco/Life Technologies). […] 50 uL of the cells were then spiked into a 96-deep well 2 ml polypropylene assay block (Costar) in the presence or absence of a concentration range of test compounds and 300 ul human heparinized whole blood (Biological Specialty Corp, Colmar Pa.). After 4 hours incubation in 37° C., the red cells were lysed using Qiagen EL buffer and the cell lysates were resuspended in lysis buffer (Cell Signaling) containing standard protease inhibitor cocktail (Calbiochem/EMD) and PMSF (Sigma) for 30 minutes ice. […] IC50 determination was performed by fitting the curve of inhibitor percent inhibition versus the log of the inhibitor concentration using the GraphPad Prism 5.0 software.

Caco-2 cells = assay: Permeability in Caco-2 cells (absorptive direction A-B); format: in vitro ADME; conditions: 4% BSA in receiver
Method: as §1, §2

P-gp = P-gp (Homo sapiens (Human), UniProt P08183); assay: Bidirectional transport across Caco-2 monolayers (P-gp mediated transport); format: in vitro ADME; conditions: human
Sequence of P-gp (P08183 whole entry): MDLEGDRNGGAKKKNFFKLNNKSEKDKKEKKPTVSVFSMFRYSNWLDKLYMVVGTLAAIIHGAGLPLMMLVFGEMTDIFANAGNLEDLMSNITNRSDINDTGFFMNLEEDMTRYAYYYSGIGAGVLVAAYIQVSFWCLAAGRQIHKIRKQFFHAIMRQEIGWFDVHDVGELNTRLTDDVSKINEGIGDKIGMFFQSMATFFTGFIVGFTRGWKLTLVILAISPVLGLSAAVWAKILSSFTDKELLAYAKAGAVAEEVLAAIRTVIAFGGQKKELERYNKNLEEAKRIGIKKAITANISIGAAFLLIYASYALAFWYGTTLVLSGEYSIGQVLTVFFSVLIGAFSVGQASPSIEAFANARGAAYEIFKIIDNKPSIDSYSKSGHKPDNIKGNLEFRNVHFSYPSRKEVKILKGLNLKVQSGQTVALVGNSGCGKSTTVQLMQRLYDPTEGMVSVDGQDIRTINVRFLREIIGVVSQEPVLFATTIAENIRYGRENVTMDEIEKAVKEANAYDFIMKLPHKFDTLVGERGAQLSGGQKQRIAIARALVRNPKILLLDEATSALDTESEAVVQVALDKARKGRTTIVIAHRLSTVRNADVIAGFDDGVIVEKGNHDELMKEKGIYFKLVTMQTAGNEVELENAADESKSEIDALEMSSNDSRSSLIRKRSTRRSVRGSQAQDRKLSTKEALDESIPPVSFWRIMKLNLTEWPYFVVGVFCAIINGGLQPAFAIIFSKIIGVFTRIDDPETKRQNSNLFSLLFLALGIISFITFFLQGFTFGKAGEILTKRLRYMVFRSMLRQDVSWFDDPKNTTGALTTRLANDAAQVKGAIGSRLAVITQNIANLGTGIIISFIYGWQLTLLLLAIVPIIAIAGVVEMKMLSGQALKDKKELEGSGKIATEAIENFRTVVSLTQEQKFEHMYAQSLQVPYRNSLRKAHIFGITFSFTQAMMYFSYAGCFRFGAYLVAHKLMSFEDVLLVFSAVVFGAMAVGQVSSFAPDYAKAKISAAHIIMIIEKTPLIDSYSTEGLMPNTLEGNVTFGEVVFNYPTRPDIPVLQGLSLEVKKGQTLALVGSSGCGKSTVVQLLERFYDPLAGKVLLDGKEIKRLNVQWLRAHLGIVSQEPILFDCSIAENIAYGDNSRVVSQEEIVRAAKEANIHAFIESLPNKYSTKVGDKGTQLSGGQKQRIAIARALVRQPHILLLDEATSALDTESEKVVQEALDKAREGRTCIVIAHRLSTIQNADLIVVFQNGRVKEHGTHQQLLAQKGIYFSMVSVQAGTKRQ
Method: as §1, §2
The efflux ratio from Caco-2 studies was calculated as the ratio of the Papp measured in the B-A direction divided by the Papp in the A-B direction.

[4] = Caco-2, with cyclosporine A (CSA) 5 μM, with CSA 5 μM
[5] = radioactive dose, single oral dose, healthy male subjects

SMILES: [2H]C([2H])([2H])Oc1cc(OC([2H])([2H])[2H])c(F)c(N2Cc3cnc4[nH]c(CN5CCOCC5)cc4c3N(CC)C2=O)c1F [Compound 6, 3-(2,6-difluoro-3,5-bis(methoxy-d3)phenyl)-1-ethyl-8-(morpholinomethyl)-1,3,4,7-tetrahydro-2H-pyrrolo[3′,2′:5,6]pyrido[4,3-d]pyrimidin-2-one]
- Papp A→B at 120 min [1]: 16 ×10⁻⁶ cm/s

SMILES: CCN1C(=O)N(c2c(F)c(O)cc(OC)c2F)Cc2cnc3[nH]c(C(=O)O)cc3c21 [Compound 5, 3-(2,6-difluoro-3-hydroxy-5-methoxyphenyl)-1-ethyl-2-oxo-2,3,4,7-tetrahydro-1H-pyrrolo[3′,2′: 5,6]pyrido[4,3-d]pyrimidine-8-carboxylic acid]
- % of Administered Dose in Feces Samples ([2]; 24-48 h): 0.4%
- % of Administered Dose in Feces Samples ([2]; 48-72 h): 0.6%
- % of Administered Dose in Feces Samples ([2]; 72-96 h): 0.5%
- % of Administered Dose in Feces Samples ([2]; 96-120 h): 0.0%
- % of Administered Dose in Feces Samples ([2]; 120-144 h): 0.1%
- % of Administered Dose in Feces Samples, Sum [2]: 1.6%

SMILES: CCN1C(=O)N(c2c(F)c(O)cc(O)c2F)Cc2cnc3[nH]c(CN4CCOCC4)cc3c21 [Compound 4, 3-(2,6-difluoro-3,5-dihydroxyphenyl)-1-ethyl-8-(morpholinomethyl)-1,3,4,7-tetrahydro-2H-pyrrolo[3′,2′:5,6]pyrido[4,3-d]pyrimidin-2-one]
- % of Administered Dose in Feces Samples ([2]; 24-48 h): 0.5%
- % of Administered Dose in Feces Samples ([2]; 48-72 h): 2.3%
- % of Administered Dose in Feces Samples ([2]; 72-96 h): 1.1%
- % of Administered Dose in Feces Samples ([2]; 96-120 h): 0.2%
- % of Administered Dose in Feces Samples ([2]; 120-144 h): 0.4%
- % of Administered Dose in Feces Samples, Sum [2]: 4.5%

SMILES: CCN1C(=O)N(c2c(F)c(OC)cc(OC)c2F)C(O)c2cnc3[nH]c(CN4CCOCC4)cc3c21 (stereo not drawn) [Compound 3, 3-(2,6-difluoro-3,5-dimethoxyphenyl)-1-ethyl-4-hydroxy-8-(morpholinomethyl)-1,3,4,7-tetrahydro-2H-pyrrolo[3′,2′:5,6]pyrido[4,3-d]pyrimidin-2-one]
- IC50 (FGFR1): 10 to 100 nM
- IC50 (FGFR2): 10 to 100 nM
- IC50 (FGFR3): 100 to 500 nM
- IC50 [3]: 1000 to 3000 nM
- % Total Radioactivity Pool of Hamilton Pools (0-24 h) ([2]; 0-24 h): 6.0%

SMILES: CCN1C(=O)N(c2c(F)c(OC)cc(OC)c2F)Cc2cnc3[nH]c(CN4CCOCC4)cc3c21 [Compound 1, 3-(2,6-difluoro-3,5-dimethoxyphenyl)-1-ethyl-8-(morpholin-4-ylmethyl)-1,3,4,7-tetrahydro-2H-pyrrolo[3′,2′:5,6]pyrido[4,3-d]pyrimidin-2-one]
- Papp A→B at 120 min [1]: 11 ×10⁻⁶ cm/s
- CACO2 Pm (Caco-2 cells): 11 ×10E−6 cm/s
- Papp A→B at 120 min, 1 μM (P-gp; [4]): 12 ± 2.3 ×10⁻⁶ cm/s
- Papp B→A at 120 min, 1 μM (P-gp; [4]): 9 ± 1.8 ×10⁻⁶ cm/s
- Papp A→B at 120 min, 30 μM (P-gp; [4]): 18 ± 0.75 ×10⁻⁶ cm/s
- Papp B→A at 120 min, 30 μM (P-gp; [4]): 12 ± 1.3 ×10⁻⁶ cm/s
- Papp A→B at 120 min, 1 μM (P-gp; Caco-2, no inhibitor): 7.3 ± 1.6 ×10⁻⁶ cm/s
- Papp B→A at 120 min, 1 μM (P-gp; Caco-2, no inhibitor): 11 ± 0.95 ×10⁻⁶ cm/s
- Papp A→B at 120 min, 30 μM (P-gp; Caco-2, no inhibitor): 21 ± 1.1 ×10⁻⁶ cm/s
- Papp B→A at 120 min, 30 μM (P-gp; Caco-2, no inhibitor): 13 ± 1.6 ×10⁻⁶ cm/s
- % Total Radioactivity Pool of Hamilton Pools (0-24 h) ([2]; 0-24 h): 64.5%
- % of Administered Dose in Feces Samples ([2]; 0-24 h): 0.1%
- % of Administered Dose in Feces Samples ([2]; 24-48 h): 0.6%
- % of Administered Dose in Feces Samples ([2]; 48-72 h): 0.4%
- % of Administered Dose in Feces Samples ([2]; 72-96 h): 0.2%
- % of Administered Dose in Feces Samples ([2]; 96-120 h): 0.0%
- % of Administered Dose in Feces Samples ([2]; 120-144 h): 0.0%
- % of Administered Dose in Feces Samples, Sum [2]: 1.4%
- overall recovery of radioactivity in urine and feces ([2]; over the 240 hour study): 95.1%
- time of peak total radioactivity and plasma Compound 1 concentrations ([2]; post dose, single oral dose, fasted): about 2.0 hours
- dose recovered in feces [2, 5]: 82.4%
- dose recovered in urine [2, 5]: 12.6%
- % of Administered Dose in Urine Sample ([2]; urine, 0-6 h): 0.5%
- % of Administered Dose in Urine Sample ([2]; urine, 6-12 h): 0.2%
- % of Administered Dose in Urine Sample ([2]; urine, 12-24 h): 0.2%
- % of Administered Dose in Urine Sample ([2]; urine, 24-48 h): 0.2%
- % of Administered Dose in Urine Sample, Sum ([2]; urine, sum 0-48 h): 1.0%
